Reference: PubChem BioAssay (NCI)
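Results reflect a 48-hour exposure of cells in 96-well plates to compound at five concentrations. At the TGI there is no net growth.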

Legend:
Assay in all cases: inhibition of tumour cell growth, NCI panel, 48 h
TK-10 renal = test system: TK-10 renal
NCI-H23 lung = test system: NCI-H23 lung
SN12C renal = test system: SN12C renal
SF-295 CNS = test system: SF-295 CNS
ACHN renal = test system: ACHN renal
A549 NSCLC = test system: A549 NSCLC
NCI-H460 lung = test system: NCI-H460 lung
HCT-15 colon = test system: HCT-15 colon
NCI-H522 lung = test system: NCI-H522 lung
SK-MEL-5 melanoma = test system: SK-MEL-5 melanoma
OVCAR-5 ovarian = test system: OVCAR-5 ovarian
RXF-631 renal = test system: RXF-631 renal
OVCAR-4 ovarian = test system: OVCAR-4 ovarian
HOP-18 NSCLC = test system: HOP-18 NSCLC
DMS 114 small cell lung = test system: DMS 114 small cell lung
A498 renal = test system: A498 renal
SR leukemia = test system: SR leukemia
SNB-19 CNS = test system: SNB-19 CNS
M19-MEL melanoma = test system: M19-MEL melanoma
K-562 leukemia = test system: K-562 leukemia
KM20L2 colon = test system: KM20L2 colon
SK-OV-3 ovarian = test system: SK-OV-3 ovarian
LOX IMVI melanoma = test system: LOX IMVI melanoma
UACC-257 melanoma = test system: UACC-257 melanoma
SNB-75 CNS = test system: SNB-75 CNS
COLO 205 colon = test system: COLO 205 colon
SF-539 CNS = test system: SF-539 CNS
786-0 renal = test system: 786-0 renal
SF-268 CNS = test system: SF-268 CNS
U251 CNS = test system: U251 CNS
KM12 colon = test system: KM12 colon
SK-MEL-2 melanoma = test system: SK-MEL-2 melanoma
HT29 colon = test system: HT29 colon
CAKI-1 renal = test system: CAKI-1 renal
MALME-3M melanoma = test system: MALME-3M melanoma
IGROV1 ovarian = test system: IGROV1 ovarian
SK-MEL-28 melanoma = test system: SK-MEL-28 melanoma
SW-620 colon = test system: SW-620 colon
M14 melanoma = test system: M14 melanoma
MOLT-4 leukemia = test system: MOLT-4 leukemia
UACC-62 melanoma = test system: UACC-62 melanoma
HOP-62 NSCLC = test system: HOP-62 NSCLC
UO-31 renal = test system: UO-31 renal
DMS 273 small cell lung = test system: DMS 273 small cell lung
RPMI-8226 leukemia = test system: RPMI-8226 leukemia
CCRF-CEM leukemia = test system: CCRF-CEM leukemia
NCI-H226 lung = test system: NCI-H226 lung
DLD-1 colon = test system: DLD-1 colon
OVCAR-8 ovarian = test system: OVCAR-8 ovarian
HCC-2998 colon = test system: HCC-2998 colon
OVCAR-3 ovarian = test system: OVCAR-3 ovarian
HCT-116 colon = test system: HCT-116 colon
LXFL 529 NSCLC = test system: LXFL 529 NSCLC
SNB-78 CNS = test system: SNB-78 CNS
EKVX NSCLC = test system: EKVX NSCLC
RXF 393 renal = test system: RXF 393 renal
XF 498 CNS = test system: XF 498 CNS
HOP-92 NSCLC = test system: HOP-92 NSCLC
HL-60(TB) leukemia = test system: HL-60(TB) leukemia

Measured: TGI

CN1C(=O)N(C)C2(O)c3ccccc3C(=O)C12O (centres undefined)
> 100 µM: TK-10 renal | NCI-H23 lung | SN12C renal | SF-295 CNS | ACHN renal | A549 NSCLC | NCI-H460 lung | HCT-15 colon | NCI-H522 lung | SK-MEL-5 melanoma | OVCAR-5 ovarian | RXF-631 renal | OVCAR-4 ovarian | HOP-18 NSCLC | DMS 114 small cell lung | A498 renal | SR leukemia | SNB-19 CNS | M19-MEL melanoma | K-562 leukemia | KM20L2 colon | SK-OV-3 ovarian | LOX IMVI melanoma | UACC-257 melanoma | SNB-75 CNS | COLO 205 colon | SF-539 CNS | 786-0 renal | SF-268 CNS | U251 CNS | KM12 colon | SK-MEL-2 melanoma | HT29 colon | CAKI-1 renal | MALME-3M melanoma | IGROV1 ovarian | SK-MEL-28 melanoma | SW-620 colon | M14 melanoma | MOLT-4 leukemia | UACC-62 melanoma | HOP-62 NSCLC | UO-31 renal | DMS 273 small cell lung | RPMI-8226 leukemia | CCRF-CEM leukemia | NCI-H226 lung | DLD-1 colon | OVCAR-8 ovarian | HCC-2998 colon | OVCAR-3 ovarian | HCT-116 colon | LXFL 529 NSCLC | SNB-78 CNS | EKVX NSCLC | RXF 393 renal

[N-]=[N+]=Nc1ncnc2c1sc(=S)n2-c1ccccc1
52.7 µM: HOP-62 NSCLC
> 100 µM: TK-10 renal | XF 498 CNS | NCI-H23 lung | SN12C renal | SF-295 CNS | ACHN renal | A549 NSCLC | NCI-H460 lung | HCT-15 colon | NCI-H522 lung | SK-MEL-5 melanoma | OVCAR-5 ovarian | OVCAR-4 ovarian | HOP-18 NSCLC | DMS 114 small cell lung | A498 renal | SR leukemia | SNB-19 CNS | M19-MEL melanoma | K-562 leukemia | KM20L2 colon | HOP-92 NSCLC | SK-OV-3 ovarian | LOX IMVI melanoma | UACC-257 melanoma | SNB-75 CNS | COLO 205 colon | SF-539 CNS | 786-0 renal | HL-60(TB) leukemia | SF-268 CNS | U251 CNS | KM12 colon | SK-MEL-2 melanoma | HT29 colon | CAKI-1 renal | MALME-3M melanoma | IGROV1 ovarian | SK-MEL-28 melanoma | SW-620 colon | M14 melanoma | MOLT-4 leukemia | UACC-62 melanoma | UO-31 renal | DMS 273 small cell lung | RPMI-8226 leukemia | CCRF-CEM leukemia | NCI-H226 lung | DLD-1 colon | OVCAR-8 ovarian | HCC-2998 colon | OVCAR-3 ovarian | HCT-116 colon | LXFL 529 NSCLC | SNB-78 CNS | EKVX NSCLC | RXF 393 renal
